Laboratory results published in US20210308077A1, “COMBINATIONS INCLUDING BETA-ADRENORECEPTOR AGONISTS FOR TREATMENT OF PARKINSON`S DISEASE AND MOVEMENT DISORDERS” (The Brigham and Women`s Hospital, Inc., priority 2017, published 2021).

How the values were obtained:
[1] = system: NPCs carrying the SNCA triplication; test: MitoSox assay of mitochondria-associated superoxide in SNCA-triplication NPCs exposed to rotenone; format: cell-based, human; details: 20 μM rotenone, 20 μM clenbuterol
Description: Patient-derived NPCs carrying the familial SNCA triplication were generated as described previously (28). NPCs were seeded at […] in 96-well plates (Greiner Cellcoat μClear) for HTS plate reader analysis (Polarstar Omega, BMG). For experiments with toxicants and inhibitors, NPCs were cultured under the following conditions for 18 hours unless specified differently in the experiment procedures: Standard NPC growth medium, growth medium plus 20 μM rotenone (Sigma).
For the Plate Reader HTS, each experiment was conducted with 6 replicates per cell line and treatment regimen. NPCs were treated with 20 μM clenbuterol for four days. Signals from individual wells were acquired with integration of fluorescence signals over 1 second duration by bottom read in orbital mode (8-spot measurements with 2 mm radius). […]
For the MitoSox assay for the detection of mitochondria-associated superoxide levels, adherent NPCs in 96-well plates were incubated with 2 μM MitoSOX™ (Ex./Em. 510/580 nm) and MitoTracker® Green (485/520 nm) (both Life Technologies) in high glucose without phenol red (Life Technologies), containing supplements without antioxidants (Life Technologies) for 15 min at 37° C. in the dark. […] Fluorescence was detected by sequential readings, and MitoSOX™ signals were normalized to mitochondrial content (Mitotracker®) and cell number (Hoechst).

[2] = system: α-synuclein protein and mRNA in substantia nigra; test: Snca expression in substantia nigra, dose-finding mouse trial; format: in vivo; details: 10 mg/kg intraperitoneal, 24 hours, P<0.05
Description: The clenbuterol pharmacokinetic (PK) study was done in wild-type C57BL/6J male mice by ChemPartner Co., LTD in Shanghai. The study was done with 4 groups of four mice; one control group and three treatment groups with clenbuterol administered via intraperitoneal injection at dosages of 1, 5 and 10 mg/kg once every 24 hours. Following completion of the administration schedule, blood samples were collected at various time points (e.g. 0.25, 2, 8, and 24 hours), from the four mice per group per time point (final time point of 24 hours post injection). Mice were sacrificed following each blood collection and brains were removed and snap frozen. […] Plasma and brain samples were analyzed by LC-MS/MS for compound concentration at each of three concentrations and at each time point. Standard pharmacokinetic parameters (e.g. AUClast, AUCINF, terminal elimination half-life (t1/2), clearance, volume of distribution, time at maximum observed plasma concentration, etc.) were determined in both plasma and brain tissueby WinNonlin V 6.2 statistics software (Pharsight Corporation, California, USA) using a non-compartmental model. […]
Protein lysis buffer containing 320 mM sucrose, 5 mM NaF, 1 mM Na3VO4, 10 mM Tris (pH 7.4), 1 mM EGTA, and 1 mM EDTA was used for mice brain tissue lysis. […] Total protein concentrations were determined by BCA assay (Thermo Scientific) according to the manufacturer's instructions. […]

SNCA mRNA = test: SNCA expression in SNCA-triplication iPSC-derived neurons; format: cell-based, human; details: SNCA-triplication iPSC-derived neurons cultured for 8 weeks, 20 μM for three days
Description: To begin neural differentiation, NPCs were dissociated with accutase and re-plated on matrigel-coated T75 flasks (CytoOne). The next day medium was fully changed to Neural Differentiation (ND) medium, which is NB medium supplemented with recombinant human BDNF and GNDF (both at 10 ng/mL; R&D Systems) and dibutyryl cyclic AMP (500 μM; Sigma), and without FGF-2. Thereafter, media was half-changed every other day. On day 7-9, differentiating neurons were gently dissociated to single cell suspension and then resuspended in pre-chilled Hank's balanced salt solution (HBSS; Gibco/Life Technologies) supplemented with 0.1% bovine serum albumin (Gibco/Life Technologies). After a wash step, cells were plated on 6- or 24-well plates pre-coated with poly-ornithine and laminin (BD Biocoat). […]
Total RNA from flash-frozen mice brain tissue, rodent primary cells, human neuroblastoma cells and iPSC-derived neuronal cells was isolated using TRIzol® (Life Technologies) following the manufacturer's protocol. RNA concentration was measured using NanoDrop spectrophotometer (Thermo Fisher Scientific, Wilmington, De.). […] Quantitative PCR was performed using TaqMan Universal PCR Master Mix (Applied Biosystems) on an ABI 7900HT instrument (Applied Biosystems) as described previously (31). […] Expression values were analyzed using the comparative threshold cycle method (31).

Structure (SMILES): CC(C)(C)NCC(O)c1cc(Cl)c(N)c(Cl)c1 (stereo not shown) [clenbuterol]
- mitochondria associated superoxide production [1]: ameliorated this increased mitochondria associated superoxide production
- nigral α-synuclein mRNA levels [2]: significant reduction
- nigral α-synuclein protein levels [2]: significant reduction
- SNCA expression (SNCA mRNA): reduced
